From patent US4857513A, “Diphosphonic acid compounds, processes for the preparation thereof and pharmaceutical composition comprising the same” (Fujisiwa Pharmaceutical Co., Ltd., priority 1986, dated 1989) come the findings set out here.

Where a name gives a salt, the structure may show the parent alone.

In this experiment the test system is Neonatal calvaria (hPTH (1-34)-treated). Kind of experiment: Inhibition of hPTH (1-34)-stimulated bone resorption in cultured neonatal rat calvaria (calcium accumulation in medium at 6 days). As to conditions: 144 h, hPTH (1-34) 1×10^-8 M, 37° C.; for inhibition at 1 µM: Dose 1 × 10^-6 M; for inhibition at 0.1 µM: Dose 1 × 10^-7 M. Format: cell-based, rat (Wistar). The protocol:
Neonatal calvaria were dissected aseptically from 1-2 day old rat (Wistar), washed in Dulbecco's modified eagle's medium and divided along the sagittal suture. The calvaria halves were pooled and randomized in the different groups. The calvaria halves were cultured separately as free-floating bones in multi-well dishes containing a 2 ml of Dulbecco's modified eagle's medium, with 10% heat-inactivated (56° C. for 1 hr) fetal calf serum. Treatment of hPTH (1-34) (1×10^-8 M) and the Test Compound (1×10^-7 or 1×10^-6 M) was begun at zero time. All incubations were performed at 37° C., under an atmosphere of 95% air and 5% CO2 for 6 days. Bone resporption was determined by measuring the accumulation of calcium in the medium at 6 days. The concentration of total calcium in culture medium was measured by OCPC method with a spectrophotometer (Hitachi model U-3200, Tokyo, Japan).
As comparative data, similar tests were conducted using culture medium with hPTH (1×10^-8 M) only, and culture medium without both hPTH and Test Compound.
Test results were represented in terms of percentage of inhibition calculated by the following formula: [formula] CD : the concentration of total calcium in culture medium treated with both hPTH and Test Compound
CO : the concentration of total calcium in control culture medium without both hPTH and Test Compound
CP : the concentration of total calcium in culture medium treated with hPTH only

Turning to `O=P(O)(O)C(C(=S)Nc1cc2ccccc2s1)P(=O)(O)O` [Test Compound (d), Disodium salt of [N-(2-benzo[b]thienyl)thiocarbamoylmethylene]bis(phosphonic acid)], the inhibition at 1 µM worked out at 59.7%.

For the compound `O=P(O)(O)C(NS(=O)(=O)c1ccc(Cl)cc1)P(=O)(O)O` [Test Compound (k), Disodium salt of [(4-chlorophenyl)sulfonylaminomethylene]bis(phosphonicacid)], the inhibition at 1 µM came to 71%.

`O=P(O)(O)C(C(=S)Nc1cccc(C(F)(F)F)c1)P(=O)(O)O` [Test Compound (f), Disodium salt of [N-(3-trifluoromethylphenyl)thiocarbamoylmethylene]bis(phosphonic acid)]: the inhibition at 1 µM stood at 68.9%.

For `O=P(O)(O)C(C(=S)Nc1ccc(C(F)(F)F)cc1)P(=O)(O)O` [Test Compound (e), Disodium salt of [N-(4-trifluoromethylphenyl)thiocarbamoylmethylene]bis(phosphonic acid)], the inhibition at 1 µM came out at 65.9%.

`O=P(O)(O)C(C(=S)Nc1ccc(Cl)c(C(F)(F)F)c1)P(=O)(O)O` [Test Compound (g), Disodium salt of [N-(4-chloro-3-trifluoromethylphenyl)thiocarbamoylmethylene]bis(phosphonicacid)]: the inhibition at 1 µM came out at 112%.

`O=P(O)(O)C(C(=S)Nc1ccccc1)P(=O)(O)O` [Test Compound (a), Tris(tert-butylamine) salt of [N-(phenyl)thiocarbamoylmethylene]bis(phosphonic acid)]: the inhibition at 1 µM was found to be 66.3% and the inhibition at 0.1 µM is 54.3%.

As for `COc1ccc(NC(=S)C(P(=O)(O)O)P(=O)(O)O)cc1C(F)(F)F` [Test Compound (h), Disodium salt of [N-(4-methoxy-3-trifluoromethylphenyl)thiocarbamoylmethylene]bis(phosphonic acid)], the inhibition at 1 µM was found to be 77.7%.

`CS(=O)(=O)Nc1cccc(NC(=S)C(P(=O)(O)O)P(=O)(O)O)c1` [Test Compound (l), Disodium salt of [N-(3-mesylaminophenyl)thiocarbamoylmethylene]bis(phosphonic acid)]: the inhibition at 1 µM stood at 52.4%.

For the compound `O=P(O)(O)C(C(=S)Nc1ccc(Cl)cc1)P(=O)(O)O` [Test Compound (c), Tris(tert-butylamine)salt of [N-(4-chlorophenyl)thiocarbamoylmethylene]bis(phosphonic acid)], the inhibition at 1 µM was found to be 57%.

Take `O=C(NC(P(=O)(O)O)P(=O)(O)O)c1cc2ccccc2s1` [Test Compound (i), Bis(tert-butylamine)salt of [(2-benzo[b]thiophenecarboxamido)methylene]bis(phosphonic acid)]: the inhibition at 0.1 µM is 45%.

As for `O=C(Nc1ccc(Cl)cc1)C(P(=O)(O)O)P(=O)(O)O` [Test Compound (b), Tris(tert-butylamine) salt of [N-(4-chlorophenyl)carbamoylmethylene]bis(phosphonic acid)], the inhibition at 1 µM came to 56.9% and the inhibition at 0.1 µM was 46.6%.

With `O=C(NC(P(=O)(O)O)P(=O)(O)O)c1ccc2ccccc2n1` [Test Compound (j), Tris(tert-butylamine)salt of [(2-quinolinecarboxamido)methylene]bis(phosphonic acid)], the inhibition at 1 µM is 53.8% and the inhibition at 0.1 µM was determined as 46.9%.
